# Experimental data reported in patent US20120035156A1, “COMBINATION OF GLYT1 COMPOUND WITH ANTIPSYCHOTICS” (priority 2010, published 2012).
# Where “and” joins values, the source holds several entries; their conditions need not be identical. Identical values can stand only once. Like-named read-outs stand apart in the source and are kept apart here.
# Assays:
# schizophrenic patients = conditions: added to conventional therapy; cited from earlier work
# [1] = tested on: L-687,414-induced hyperlocomotion; assay: Reversal of L-687,414-induced hyperlocomotion in mice; format: in vivo; conditions: for ED50: Mus musculus, po, 1 h, read-out: ED50 of compound alone, L-687,414-induced hyperlocomotion; for reversal of hyperlocomotion induced by L-687,414 (in words): single agents, mice, L-687,414 50 mg/kg
# Procedure: RG1678, [4-(3-Fluoro-5-trifluoromethyl-pyridin-2-yl)-piperazin-1-yl]-[5-methanesulfonyl-2-((S)-2,2,2 trifluoro-1-methyl-ethoxy)-phenyl]-methanone (WO05/014563) and L-687,414, ((3R,4R)-3-amino-1-hydroxy-4-methylpyrrolidin-2-one (Tetrahedron Letters, Vol. 49, issue 42, 2008, 6079-6080) and olanzapine were synthesized according to known methods by the Medicinal Chemistry Department of F. Hoffmann-La Roche, and risperidone was purchased from Sigma. All drugs were dissolved in H2O/0.3% Tween 80 and administered orally in a volume of 10 ml/kg body weight.
# Male NMRI mice (20-30 g) supplied from Iffa Credo, Lyon, France, were housed in a vivarium at controlled temperature (20-22° C.) and a 12 hr light/dark cycle (lights on 6:00 a.m. Animals were allowed ad libitum access to food and water. The experimental procedures used in the present study received prior approval from the City of Basel Cantonal Animal Protection Committee based on adherence to federal and local regulations. Behavioral experiments were conducted during the hours of 8:00 a.m. and 2:00 p.m.
# A computerized Digiscan 16 Animal Activity Monitoring System (Omnitech Electronics, Columbus, Ohio) was used to quantify locomotor activity. Data were obtained simultaneously from eight Digiscan activity chambers placed in a soundproof room with a 12 hr light/dark cycle. Experiments were performed during the light phase between 06:30 a.m. and 5:00 p.m. Each activity monitoring chamber consisted of a Plexiglas box (41×41×28 cm; W×L×H) with sawdust bedding on the floor surrounded by invisible horizontal and vertical infrared sensor beams. The chambers were divided by a Plexiglas cross providing each mouse with 20×20 cm of moving space. Two animals per box were monitored simultaneously. Chambers were connected to a Digiscan Analyzer linked to a computer that constantly collected the beam status information. The activity detector operates by counting the number of times the beams change from uninterrupted to interrupted status or vice-versa. Records of photocell beam interruptions for individual animals were taken every five minutes over the duration of the experimental session. Mice were first treated with RG1678 at different doses or at a fixed low dose administered p.o. and, 30 minutes later, treated with an antipsychotic at different doses or at a fixed low dose administered p.o. Fifteen minutes after the antipsychotic treatment mice received a s.c. injection of 50 mg/kg of L-687,414. Mice were then transferred from their home cages to the recording chambers for a 15-min habituation phase allowing free exploration of the new environment. Horizontal activity was then recorded for a 60-min time period. The horizontal activity value for each group of animals at a given dose of RG1678 alone or in combination with an antipsychotic (y1) was expressed as % of L-687,414-induced hyperlocomotion and calculated according to the equation (((y1−vehicle horizontal activity)/(L-687,414 horizontal activity−vehicle horizontal activity))×100). For dose-response experiments, the horizontal activity value for each group of animal at a given dose of GlyT1 inhibitor or antipsychotics (y1) was expressed as a percent of L-687,414-induced hyperlocomotion and calculated according to the equation (((y1−vehicle horizontal activity)/(L-687,414 horizontal activity−vehicle horizontal activity))×100). ID50 values, defined as doses of each compound producing 50% inhibition of L-687,414-induced hyperlocomotion, were calculated by linear regression analysis of the dose-response data using an Excel-based computer curve-fitting program.
# [2] = tested on: L-687,414-induced hyperlocomotion; conditions: mice; D. Alberati et al 2010; cited from earlier work
structure (smiles),measurement,setting,value
N[C@H](CO)C(=O)O [D-serine],"effect on positive, negative and cognitive symptoms",schizophrenic patients,"improved positive, negative and cognitive symptoms"
C[C@H](Oc1ccc(S(C)(=O)=O)cc1C(=O)N1CCN(c2ncc(C(F)(F)F)cc2F)CC1)C(F)(F)F [RG1678],ED50,"[1]; male NMRI mice, p.o., L-687,414 50 mg/kg s.c., horizontal activity recorded 1 hour",0.76 mg/kg
same,reversal of hyperlocomotion induced by RG1678 alone,"[1]; RG1678 0.6 mg/kg p.o., male NMRI mice, L-687,414 50 mg/kg s.c.",19% and 21%
same,"reversal of hyperlocomotion induced by L-687,414 (in words)",[1],dose-dependently reversed hyperlocomotion
"O=C1CCc2ccc(OCCCCN3CCN(c4cccc(Cl)c4Cl)CC3)cc2N1 [aripiprazole, 7-{4-[4-(2,3-dichlorophenyl)piperazin-1-yl]butoxy}-3,4-dihydroquinolin-2(1H)-one]","prevention of hyperlocomotion induced by L-687,414 (assay validation)",[2],effective in preventing this behavioral effect in a dose-dependant manner
NCC(=O)O [glycine],"effect on positive, negative and cognitive symptoms",schizophrenic patients,"improved positive, negative and cognitive symptoms"
same,"prevention of hyperlocomotion induced by L-687,414 (assay validation)",[2],dose-dependently blocked hyperlocomotion
O=C(CCCN1CCC(O)(c2ccc(Cl)cc2)CC1)c1ccc(F)cc1 [haloperidol],"prevention of hyperlocomotion induced by L-687,414 (assay validation)",[2],effective in preventing this behavioral effect in a dose-dependant manner
"Cc1cc2c(s1)Nc1ccccc1N=C2N1CCN(C)CC1 [olanzapine, 2-methyl-4-(4-methyl-1-piperazinyl)-10H-thieno[2,3-b][1.5]benzodiazepine]",ED50,[1],0.06 mg/kg
same,reversal of hyperlocomotion induced by olanzapine alone,"[1]; olanzapine 0.05 mg/kg p.o., male NMRI mice, L-687,414 50 mg/kg s.c.",34%
"Cc1nc2n(c(=O)c1CCN1CCC(c3noc4cc(F)ccc34)CC1)CCCC2 [risperidone, 3-[2-[4-(6-fluoro-1,2-benzisoxazol-3-yl)piperidino]ethyl]-2.methyl-6,7,8,9-tetrahydro-4H-pyrido-[1.2-a]pyrimidin-4-one]",ED50,[1],0.023 mg/kg
same,reversal of hyperlocomotion induced by risperidone alone,"[1]; risperidone 0.005 mg/kg p.o., male NMRI mice, L-687,414 50 mg/kg s.c.",15%
same,"reversal of hyperlocomotion induced by L-687,414 (in words)",[1],dose-dependently reversed hyperlocomotion
same,"prevention of hyperlocomotion induced by L-687,414 (assay validation)",[2],effective in preventing this behavioral effect in a dose-dependant manner
CNCC(=O)O [sarcosine],"effect on positive, negative and cognitive symptoms",schizophrenic patients,"improved positive, negative and cognitive symptoms"
